Consider 26 molecules from PubChem BioAssay (NCI).

Some test systems named below: KM20L2 colon; LXFL 529 NSCLC; M19-MEL melanoma; RXF-631 renal; SNB-78 CNS; XF 498 CNS; DMS 114 small cell lung; DMS 273 small cell lung.
Holding throughout (assay): DTP human tumour cell line panel, 48 h

“And” between values parts separate entries of the source, which are not always exact repeats. Equal entries are not always repeated.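 Interpolation was linear, between the two tested concentrations surrounding the appropriate level; five concentrations were tested over 48 hours in 96-well plates. The concentration for 50% growth inhibition is given as GI50. TGI: total growth inhibition.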 The source made the active and inactive calls. Rule as the data show it: active = GI50 below about 0.43 µM; inactive = the rest.

A word on the TGI: it is the concentration giving total growth inhibition. As usually defined, the GI50 is the concentration that inhibits growth by half. For the molecule `CC1CCC2c3c([nH]c4ccccc34)C3C(=O)N(c4ccccc4)C(=O)C3C2C1` (stereo not given), the TGI with KM20L2 colon was above 250 µM; with LXFL 529 NSCLC it was above 250 µM; in the assay with M19-MEL melanoma, above 250 µM; in the assay on RXF-631 renal, above 250 µM; with SNB-78 CNS, 42.2 µM and > 250 µM; in the assay with XF 498 CNS it was 7.55 µM. The GI50 in the assay on SNB-78 CNS is 35.2 µM.
For `O=S(=O)(Cc1ccccc1)SCc1ccccc1`, the TGI came out at 32 µM in the assay with DMS 114 small cell lung; 98.2 µM with DMS 273 small cell lung; 40.1 µM in the assay on KM20L2 colon; 53.9 µM in the assay with M19-MEL melanoma; 36.4 µM with RXF-631 renal; 48.2 µM in the assay on SNB-78 CNS.
Turning to `CC1=C(C(=O)CC(=O)C(=O)Nc2ccccc2C)Sc2ccccc2N1`, the concentration for total growth inhibition (TGI) in the assay with DMS 273 small cell lung, with KM20L2 colon, in the assay on M19-MEL melanoma and in the assay with SNB-78 CNS was above 100 µM each time.
In the case of `CC(=O)c1c(O)c2c([nH]c1=O)CCCC2`, the TGI with DMS 114 small cell lung was above 100 µM; with DMS 273 small cell lung, 70.5 µM; in the assay with KM20L2 colon it was above 100 µM; with LXFL 529 NSCLC, above 100 µM; in the assay with M19-MEL melanoma, 44.3 µM; with RXF-631 renal, 59.2 µM. The TGI with SNB-78 CNS and with XF 498 CNS was above 100 µM throughout.
Consider `O=C(O)C1=C(C(=O)O)Oc2ccccc2O1`, for which the TGI in the assay on DMS 114 small cell lung, in the assay with DMS 273 small cell lung, in the assay with KM20L2 colon, in the assay on LXFL 529 NSCLC, in the assay on M19-MEL melanoma and in the assay on SNB-78 CNS was above 100 µM in each case. In addition, in the assay with XF 498 CNS, the TGI is above 100 µM.
For `C/C(CC(=O)Nc1cccc(Cl)c1C)=N\N=C(N)N`, the TGI in the assay with DMS 114 small cell lung, in the assay on DMS 273 small cell lung, in the assay with KM20L2 colon, with LXFL 529 NSCLC, in the assay on M19-MEL melanoma and in the assay on SNB-78 CNS was above 100 µM each time. The TGI with XF 498 CNS was above 100 µM.
For `NNC(=O)N/N=C1\CNC(=O)C(=O)C1c1nc2ccccc2s1` (stereo not given), the concentration for total growth inhibition (TGI) with DMS 114 small cell lung, with DMS 273 small cell lung, in the assay on KM20L2 colon, with LXFL 529 NSCLC, in the assay on M19-MEL melanoma and in the assay with SNB-78 CNS was above 100 µM each time. The TGI in the assay on XF 498 CNS was above 100 µM.
Consider `CN(C)CCNC(=O)c1cccc2cc3ccc4ccccc4c3nc12`, for which the TGI with DMS 273 small cell lung came to 0.163 µM; in the assay on KM20L2 colon, 0.988 µM; with LXFL 529 NSCLC, 0.665 µM; with M19-MEL melanoma, 0.235 µM; in the assay with SNB-78 CNS, 12.5 µM; with XF 498 CNS it was 0.237 µM.
Regarding `Nc1nc(-c2ccccc2)cc(-c2cc(Cl)ccc2O)n1`, the TGI in the assay on DMS 114 small cell lung, with DMS 273 small cell lung, in the assay with KM20L2 colon, with LXFL 529 NSCLC, in the assay on RXF-631 renal and with SNB-78 CNS was above 100 µM each time.
Regarding `O=C1c2ccoc2C(=O)c2oc(=O)ccc21`, the TGI was 4.42 µM in the assay on DMS 114 small cell lung; 31.6 µM in the assay with DMS 273 small cell lung; above 65.4 µM with KM20L2 colon; 15.2 µM in the assay on LXFL 529 NSCLC; 2.9 µM with M19-MEL melanoma; 42.8 µM with SNB-78 CNS. Further, the total growth inhibition concentration (TGI) with XF 498 CNS turned out to be 40 µM.
As for `CC(C)=CC(=O)CC(=O)C(=O)NCCNC(=O)C(=O)CC(=O)C=C(C)C`, the concentration for total growth inhibition (TGI) in the assay with DMS 114 small cell lung, in the assay on DMS 273 small cell lung, in the assay with KM20L2 colon, with LXFL 529 NSCLC, with M19-MEL melanoma and in the assay on SNB-78 CNS was above 50 µM each time. The molecule further came in with a TGI in the assay on XF 498 CNS above 50 µM.
Consider `c1ccc2c(c1)[O][Sn][O]2`, for which the GI50 with DMS 114 small cell lung was 8.87 mg/L; in the assay with DMS 273 small cell lung, 10.4 mg/L; in the assay on SNB-78 CNS, above 150 mg/L. Further, the TGI in the assay with DMS 114 small cell lung, with DMS 273 small cell lung and in the assay with SNB-78 CNS was above 150 mg/L throughout. Besides, the result in the assay with KM20L2 colon, in the assay with LXFL 529 NSCLC and in the assay on RXF-631 renal was inactive.
Turning to `Nc1ncnc2sc(Nc3ccccc3)nc12`, the total growth inhibition concentration (TGI) in the assay with DMS 273 small cell lung, with KM20L2 colon, in the assay on LXFL 529 NSCLC, in the assay on M19-MEL melanoma, with RXF-631 renal and in the assay with SNB-78 CNS was above 100 µM in each case. The molecule also displayed a TGI in the assay on XF 498 CNS above 100 µM.
In the case of `NC(=O)C(=O)Cc1nc2ccccc2s1`, the TGI in the assay on DMS 114 small cell lung, with KM20L2 colon, in the assay on LXFL 529 NSCLC, in the assay on M19-MEL melanoma, in the assay with SNB-78 CNS and with XF 498 CNS was above 100 µM in each case.
For the molecule `CC1(C)OC2OC(COC(=O)C(c3ccccc3)c3ccccc3)C3OC(C)(C)OC3C2O1` (stereo not given), the TGI with DMS 114 small cell lung is above 100 µM; in the assay on KM20L2 colon, above 100 µM; in the assay on LXFL 529 NSCLC, above 100 µM; in the assay with M19-MEL melanoma, above 100 µM; with XF 498 CNS, 99.7 µM. For the same molecule, the GI50 in the assay on LXFL 529 NSCLC was above 100 µM.
In the case of `COc1ccc2nc(-c3ccc(O)cc3)ccc2c1`, the total growth inhibition concentration (TGI) with DMS 114 small cell lung, in the assay on KM20L2 colon, in the assay with LXFL 529 NSCLC, in the assay on M19-MEL melanoma and in the assay on SNB-78 CNS was above 100 µM throughout.
`Cn1cc(NC(=O)c2cc(NC(=O)CCCCCCCC(=O)Nc3cc(C(=O)Nc4cc(C(=O)NCCC(=N)N)n(C)c4)n(C)c3)cn2C)cc1C(=O)NCCC(=N)N`: the TGI in the assay on DMS 114 small cell lung was 11.9 µM; in the assay on DMS 273 small cell lung, 25 µM; in the assay with KM20L2 colon it was above 100 µM; with LXFL 529 NSCLC it was 28.8 µM; in the assay on M19-MEL melanoma, 16.7 µM; in the assay on RXF-631 renal it was above 100 µM. In addition, the TGI is 93.5 µM with SNB-78 CNS and 56.1 µM in the assay on XF 498 CNS.
Take `Cc1csc(CCC(N)C(=O)O)n1` (stereo not given): the TGI in the assay on DMS 273 small cell lung, in the assay with LXFL 529 NSCLC, in the assay with M19-MEL melanoma and in the assay with SNB-78 CNS was above 100 µM in each case.
As to `C1CCN2CC3CONC3C2C1` (stereo not given), the TGI in the assay on DMS 114 small cell lung, with DMS 273 small cell lung, in the assay on KM20L2 colon, with LXFL 529 NSCLC, in the assay on M19-MEL melanoma and in the assay on SNB-78 CNS was above 100 µM in each case. In the assay with XF 498 CNS, this molecule gave a concentration for total growth inhibition (TGI) above 100 µM.
In the case of `CC1(C)CC(O)CC(C)(C)N1.CC1(C)CC(O)CC(C)(C)N1.CC1(C)CC(O)CC(C)(C)N1.CC1(C)CC(O)CC(C)(C)N1.Cl.[Ti]`, the GI50 with DMS 114 small cell lung, in the assay with DMS 273 small cell lung, in the assay on KM20L2 colon, with LXFL 529 NSCLC, in the assay on M19-MEL melanoma and in the assay with RXF-631 renal was above 100 µM each time. In addition, the GI50 with SNB-78 CNS is above 100 µM. The TGI with DMS 114 small cell lung, in the assay on DMS 273 small cell lung, in the assay with KM20L2 colon, with LXFL 529 NSCLC, in the assay on M19-MEL melanoma and with RXF-631 renal was above 100 µM each time. Further, in the assay on SNB-78 CNS, the concentration for total growth inhibition (TGI) was above 100 µM.
Turning to `CC(C)(C)c1cc(C(OCCl)(C(F)(F)F)C(F)(F)F)c2c(c1)C(C(F)(F)F)(C(F)(F)F)OC21c2ccccc2C(=O)c2ccccc21`, the TGI in the assay with DMS 114 small cell lung, in the assay with DMS 273 small cell lung, in the assay with KM20L2 colon, with LXFL 529 NSCLC, in the assay with M19-MEL melanoma and in the assay on RXF-631 renal was above 100 µM in each case. For the same molecule, the TGI in the assay on SNB-78 CNS and in the assay on XF 498 CNS was above 100 µM throughout.
Consider `C1=C(c2ccccc2)C(OC2Oc3ccccc3C=C2c2ccccc2)Oc2ccccc21` (stereo not given), for which the TGI in the assay on DMS 114 small cell lung, in the assay with DMS 273 small cell lung, with KM20L2 colon, in the assay with LXFL 529 NSCLC, in the assay with M19-MEL melanoma and in the assay on RXF-631 renal was above 100 µM in each case. Further, the TGI with SNB-78 CNS and in the assay with XF 498 CNS was above 100 µM in each case.
Consider `Nc1c(-c2nc3ccccc3s2)[n+]([O-])c2ccccc2[n+]1[O-]`, for which the TGI was above 100 µM with DMS 114 small cell lung; above 100 µM in the assay with KM20L2 colon; 77.6 µM in the assay with LXFL 529 NSCLC; 84.2 µM in the assay on M19-MEL melanoma; above 100 µM in the assay with SNB-78 CNS.
As to `O=C(CCC(=O)C1Cc2ccccc2C1=O)Nc1cccc(C(F)(F)F)c1` (stereo not given), the TGI with DMS 273 small cell lung, in the assay with KM20L2 colon, in the assay with LXFL 529 NSCLC, in the assay on M19-MEL melanoma, in the assay with RXF-631 renal and in the assay on SNB-78 CNS was above 100 µM in each case.
Regarding `Nc1c(C(=O)Nc2ccccc2O)[n+]([O-])c2ccccc2[n+]1[O-]`, the TGI in the assay with DMS 114 small cell lung is 63.5 µM; in the assay on DMS 273 small cell lung, above 100 µM; in the assay on KM20L2 colon, above 100 µM; with LXFL 529 NSCLC it was above 100 µM; in the assay on M19-MEL melanoma, 27.7 µM; with RXF-631 renal it was above 100 µM. In addition, the TGI in the assay on SNB-78 CNS was above 100 µM.
`O=c1c2cccc3cccc(c4n1CCCN=4)c32`: the TGI in the assay with DMS 114 small cell lung, with DMS 273 small cell lung, in the assay with KM20L2 colon, in the assay on LXFL 529 NSCLC, with M19-MEL melanoma and in the assay with RXF-631 renal was above 100 µM each time. Also, the TGI with SNB-78 CNS and with XF 498 CNS was above 100 µM each time.
